Common to all, as to test: NCI anticancer screen, dose series, 48 h
Test [1] relates to SK-OV-3.
Test [2] has as its system NCI/ADR-RES.
Test [3] deals with NCI-H226.
Test [4] concerns MOLT-4.
In test [5] the test system is LOX IMVI.
Test [6] has as its system T47D.
The subject of test [7] is IGROV-1.
For test [8], the system named is NCI-H460.
Test [9] has as its system CCRF-CEM.
For test [10], the system named is SNB-75.
In test [11] the test system is TK-10.
In test [12] the test system is EKVX.
Test [13] deals with OVCAR-5.
Test [14] concerns CAKI-1.
Test [15] concerns M14.
In test [16] the test system is KM12.
Test [17] has as its system BT-549.
In test [18] the test system is OVCAR-4.
Test [19] relates to RPMI-8226.

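Growth conditions: 96-well plates. Treatment: test compound, 48 hours, 5 concentrations. Analysis: linear interpolation between bracketing concentrations; unreached endpoints set to highest concentration. Abbreviation: GI50, concentration required for 50% inhibition of growth.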 Active and inactive are the calls of the source. Cut-off read from the data, not from the text of the source: active = GI50 up to about 1.1 µM and inactive = higher. Positions of bridges follow the written chain, without caps; N, C: chain ends. Residues, ends and D or L forms follow the SMILES beside them.

On to `C=CCC1(O)C(=O)OC2C(O)COC21O` (stereo not given), for which the GI50 in test [1], in test [2], in [3], in test [4], in [5] and in test [6] was > 100 µM (inactive) each time. Moreover, the GI50 in test [7] was > 100 µM (inactive); in test [8], > 100 µM (inactive); in test [9], > 100 µM (inactive); in [10], 35.4 µM (inactive); in [11], > 100 µM (inactive); in test [12], > 100 µM (inactive). Besides, the GI50 in [13], in test [14], in test [15], in [16], in test [17] and in test [18] was > 100 µM (inactive) throughout.
For `CC(=O)OCC12C(OC(C)=O)C(=O)C3C(OC(C)=O)C14OC3(C)COC(=O)c1cccnc1C(C)C(C)C(=O)OC(C(OC(C)=O)C2OC(C)=O)C4(C)O` (stereo not given), the GI50 in [1] was > 100 µM (inactive); in [3], > 100 µM (inactive); in [4] it was 52.2 µM (inactive); in [5], > 100 µM (inactive); in test [6], > 100 µM (inactive); in test [19], > 100 µM (inactive). Besides, the GI50 in test [7], in test [8], in test [9], in test [10], in [11] and in [12] was > 100 µM (inactive) in each case. In addition, the GI50 in [13], in test [14], in test [15], in test [16], in test [17] and in test [18] was > 100 µM (inactive) throughout.
Consider `CCC(C)C1NC(=O)C(CC(C)C)NC(=O)C(C(C)C)NC(=O)C2CSSCC(NC1=O)C(=O)N2` (stereo not given) (cyclo(CCVLI); disulfide 1-2; configuration not given here), for which the GI50 in test [2] was 2.55 µM (inactive); in test [4] it was 0.0165 µM (active); in test [5] it was 0.0573 µM (active); in test [6], 0.0305 µM (active); in [19], 0.0262 µM (active); in test [7], 0.165 µM (active). Further, the GI50 in [8] is 0.116 µM (active); in test [9], 0.0228 µM (active); in test [10] it was 0.112 µM (active); in [11] it was 0.687 µM (active); in test [12], 0.15 µM (active); in test [13] it was 0.16 µM (active). Moreover, the GI50 in test [14] is 1.74 µM (inactive); in [15], 0.277 µM (active); in test [16] it was 0.0507 µM (active); in test [17] it was 0.198 µM (active); in [18] it was 0.18 µM (active).
For `C=C1C(=O)[C@]23C[C@H]1C[C@@H](O)[C@H]2[C@]1(COC3=O)[C@@H](OC(C)=O)CC[C@@](C)(COC(C)=O)[C@H]1C=O` [LOXOTHYRIN A], the GI50 in test [2] is > 50 µM (inactive); in test [3], 9.57 µM (inactive); in [4] it was 9.04 µM (inactive); in test [5], > 50 µM (inactive); in test [6], 11.7 µM (inactive); in test [7] it was > 50 µM (inactive). The GI50 is > 50 µM (inactive) in test [8]; 7.28 µM (inactive) in test [9]; > 50 µM (inactive) in [10]; > 50 µM (inactive) in test [11]; > 50 µM (inactive) in [12]; > 50 µM (inactive) in [13]. In addition, the GI50 in [14] was 9.38 µM (inactive); in test [16], > 50 µM (inactive); in test [17], 23.7 µM (inactive); in test [18], > 50 µM (inactive).
`O=c1[nH]c(N/N=C\C(O)C(O)C(O)CO)nc2ccccc12` (stereo not given): the GI50 in [1], in test [2], in test [3], in test [4], in test [5] and in [6] was > 100 µM (inactive) in each case. The GI50 in test [19], in [7], in [8], in [9], in test [10] and in test [11] was > 100 µM (inactive) in each case. The GI50 in test [12], in [13], in test [14], in [15], in test [16] and in [17] was > 100 µM (inactive) in each case.
Regarding `Cc1ccc(/N=C2\C(=N/c3ccc(C)cc3)N(c3ccc(C)cc3)C(=S)N2C(=O)c2ccccc2)cc1`, the GI50 in test [1], in test [2], in test [3], in test [4], in test [6] and in test [19] was > 100 µM (inactive) throughout. The GI50 was > 100 µM (inactive) in [7]; > 100 µM (inactive) in test [8]; 17.5 µM (inactive) in [10]; > 100 µM (inactive) in test [11]; > 100 µM (inactive) in [12]; > 100 µM (inactive) in test [13]. The GI50 in [14], in [15], in test [16] and in test [17] was > 100 µM (inactive) each time.
For `O=C1CC(C(O)C(O)C(O)CO)CC(=O)N1` (stereo not given), the GI50 in test [2], in test [3], in test [4], in test [5], in test [6] and in test [19] was > 100 µM (inactive) in each case. Moreover, the GI50 in test [7], in [8], in test [9], in [10], in [11] and in test [12] was > 100 µM (inactive) throughout. Besides, the GI50 in [13] is > 100 µM (inactive); in test [14], > 100 µM (inactive); in [15], > 100 µM (inactive); in test [16], > 100 µM (inactive); in test [17], 74 µM (inactive); in test [18], > 100 µM (inactive).
As for `Cc1ccc(/C(O)=C/c2nc3ccccc3oc2=O)cc1`, the GI50 in test [2] was 25.5 µM (inactive); in test [3], > 100 µM (inactive); in [4] it was 45.4 µM (inactive); in [6], 77.6 µM (inactive); in [7], > 100 µM (inactive); in test [8] it was > 100 µM (inactive). In addition, the GI50 was 12.8 µM (inactive) in test [9]; > 100 µM (inactive) in test [10]; > 100 µM (inactive) in test [11]; > 100 µM (inactive) in [12]; > 100 µM (inactive) in test [13]; > 100 µM (inactive) in [14]. The GI50 in [15] is > 100 µM (inactive); in test [16] it was > 100 µM (inactive); in test [17], 44.4 µM (inactive); in [18], > 100 µM (inactive).
As for `OCC1OC(n2cnc3c2N=CNC[C@H]3O)C(Cl)C1O` (stereo not given in full), the GI50 in test [2] is > 100 µM (inactive); in test [4] it was 94.2 µM (inactive); in [5] it was > 100 µM (inactive); in test [6], > 100 µM (inactive); in test [19], > 100 µM (inactive); in [7], > 100 µM (inactive). The GI50 in test [8], in test [9], in [10], in test [11], in [12] and in test [13] was > 100 µM (inactive) each time. In addition, the GI50 in test [14], in [15], in [16], in test [17] and in [18] was > 100 µM (inactive) throughout.
Consider `Cc1cc(=O)[nH]c2cc(NC(=O)C(CCCNC(=N)N)NC(=O)OCc3ccccc3)ccc12` (stereo not given), for which the GI50 in test [1] was 4.28 µM (inactive); in test [2], > 100 µM (inactive); in test [3], > 100 µM (inactive); in [4], > 100 µM (inactive); in test [5], > 100 µM (inactive); in test [6], > 100 µM (inactive). Further, the GI50 in test [7], in [8], in test [9], in test [10], in test [11] and in test [12] was > 100 µM (inactive) throughout. Further, the GI50 in test [13], in [14], in test [15], in test [16], in test [17] and in test [18] was > 100 µM (inactive) in each case.
Regarding `Cc1nn(C(=O)c2ccccc2O)c2c1C(c1ccc(O)cc1O)SC(=N)N2` (stereo not given), the GI50 in test [1] was 3.6 µM (inactive); in test [2], 3.33 µM (inactive); in test [3], 1.32 µM (inactive); in test [4], 3.48 µM (inactive); in [5] it was 4.6 µM (inactive); in test [19], 2.89 µM (inactive). Further, the GI50 in [7] is 3.48 µM (inactive); in test [8] it was 4.6 µM (inactive); in test [9] it was 3.05 µM (inactive); in [10] it was 2.48 µM (inactive); in test [11], > 10 µM (inactive); in [12] it was 8.11 µM (inactive). The GI50 in [13] is 1.04 µM (active); in [14], 4.29 µM (inactive); in [15], 3.61 µM (inactive); in test [16] it was 6.19 µM (inactive); in [17] it was 2.52 µM (inactive); in [18] it was 2.94 µM (inactive).

The values are drawn from ChEMBL document CHEMBL1201862, “PubChem BioAssay data set” (2004).
